Data taken from patent publication US5968910A, “Compositions containing two or three inhibitors of different HIV reverse transcriptases” (priority 1994, dated 1999).
≈ marks a conversion by molar mass, not a printed value. Where two headings read alike, the source gives them in different places.

Legend:
HIV-1(IIIB) (WT) = experiment: microbe, parasite or virus in culture; type: cell-based; details: Human immunodeficiency virus 1, IIIB, CCRF-CEM
How it was run: (§1)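 CEM cells at 250,000 cells/ml were infected with HIV-1 at 100 CCID50 per ml, then mixed with serial dilutions of test compound. After 4 days at 37° C., cultures were scored for syncytium formation.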

HIV-1/I(0.1) 103-Asn = experiment: Sensitivity of mutant HIV-1 strain in CEM cell cultures; type: cell-based; details: Human immunodeficiency virus 1, CCRF-CEM; Table 5; read-out: EC50
How it was run: as §1

HIV-1/II(0.1) 100-Ile = experiment: as above; type: cell-based; details: Human immunodeficiency virus 1, CCRF-CEM; Table 5; read-out: EC50
How it was run: as §1

HIV-1/III(0.1) 103-Asn = experiment: as above; type: cell-based; details: Human immunodeficiency virus 1, CCRF-CEM; Table 5; read-out: EC50
How it was run: as §1

HIV-1/Nev (106-Ala) = experiment: as above; type: cell-based; details: Human immunodeficiency virus 1, CCRF-CEM; CEM cells, Table 1; read-out: 50% Effective Concentration
How it was run: as §1

HIV-1/Pyr (181-Cys) = experiment: as above; type: cell-based; details: Human immunodeficiency virus 1, CCRF-CEM; CEM cells, Table 1; read-out: 50% Effective Concentration
How it was run: as §1

[1] = test system: HIV-1/TIBO R82150 (100-Ile); experiment: as above; type: cell-based; details: Human immunodeficiency virus 1, CCRF-CEM; CEM cells, Table 1; read-out: 50% Effective Concentration
How it was run: as §1

[2] = test system: HIV-1/TIBO R82913 (103-Asn); experiment: as above; type: cell-based; details: Human immunodeficiency virus 1, CCRF-CEM; CEM cells, Table 1; read-out: 50% Effective Concentration
How it was run: as §1

[3] = test system: HIV-1/TSAO-m^3 T (138-Lys); experiment: as above; type: cell-based; details: Human immunodeficiency virus 1, CCRF-CEM; CEM cells, Table 1; read-out: 50% Effective Concentration
How it was run: as §1

[4] = test system: HIV-1/V(0.1) 101-Ile + 141-Glu; experiment: as above; type: cell-based; details: Human immunodeficiency virus 1, CCRF-CEM; Table 5; read-out: EC50
How it was run: as §1

HIV-1/V(0.5) 103-Asn = experiment: as above; type: cell-based; details: Human immunodeficiency virus 1, CCRF-CEM; Table 5; read-out: EC50
How it was run: as §1

HIV-1 RT (WT) = HIV-1 RT (WT) (Human immunodeficiency virus type 1 group M subtype B, UniProt P03366); experiment: biochemical
Experimental: The reaction mixture (50 μl) contained 50 mM Tris.HCl, pH 7.8, 5 mM dithiothreitol, […] glutathione, 500 μM EDTA, 150 mM KCl, 5 mM MgCl2, 1.25 μg of bovine serum albumin, a fixed concentration of the labeled substrate [2,8-^3 H]dGTP (2.95 μM, 2 μCi), a fixed concentration of the template/primer poly(C).oligo(dG) (0.1 mM), 0.06% Triton X-100, 5 μl of inhibitor solution [containing various concentrations (5-fold dilutions) of the test compounds], and 5 μl of the RT preparation. The reaction mixtures were incubated at 37° C. for 30 min, at which time 100 μl of calf thymus DNA (150 μg/ml), 2 ml of Na4 P2 07 (0.1 M in 1M HCl), and 2 ml of trichloroacetic acid (10%, v/v) were added. The solutions were kept on ice for 30 min, after which the acid-insoluble material was washed and analyzed for radioactivity.
Compounds I, III, IV and V were evaluated for their inhibitory effect on recombinant HIV-1 RT.

HIV-1(IIIB) = experiment: Knock-out concentrations: breakthrough of HIV-1(IIIB)-induced cytopathicity in CEM cell cultures; type: cell-based; details: for activity at 0.1 µg/mL / activity at 0.5 µg/mL / activity at 2.5 µg/mL: Human immunodeficiency virus 1, IIIB, CCRF-CEM, read-out: HIV-1-induced cytopathicity in cell culture; for activity at 0.1 µg/mL: 0.1 μg/ml; for activity at 0.5 µg/mL: 0.5 μg/ml; for activity at 2.5 µg/mL: 2.5 μg/ml
Experimental: The culture medium consisted of RPMI 1640 containing 10% fetal bovine serum, 2 mM L-glutamine, and 0.075% NaHCO3. The multiplicity of the initial infection was ~1000 times the CCID50 (50% cell culture infective dose). Passages were performed every 3 to 4 days by adding 0.5 to 1.0 ml of the infected culture supernatant to 5 ml of a suspension containing 4×10^5 uninfected CEM cells per ml. Syncytium formation was used as a parameter of virus breakthrough in the cell cultures. In the drug combination experiments, the compounds were combined at the same initial concentrations as used for the two lowest concentrations in the single-drug experiments.
The drug concentrations were kept constant throughout the whole time period of the experiment (10 subcultivations or 35 days). Then the drugs were removed from the cell cultures, and the cells were further subcultured for at least 5 additional passages.

[5] = 936 h, day 39 post infection, compound absent from day 35
[6] = 1008 h, day 42 post infection, compound absent from day 35
[7] = 1104 h, day 46 post infection, compound absent from day 35
[8] = 1176 h, day 49 post infection, compound absent from day 35
[9] = 1272 h, day 53 post infection, compound absent from day 35

O=C(OC1CCCCC1)c1cc(NC(=S)c2ccsc2)ccc1Cl [Compound V]
EC50 (HIV-1(IIIB) (WT); CEM cells, Table 1, read-out: 50% Effective Concentration): 0.03 µg/mL (≈ 0.079 µM) | EC50 (HIV-1(IIIB) (WT); HIV-1 (III8), Table 5, read-out: EC50): 0.03 µg/mL (≈ 0.079 µM) | IC50 (HIV-1(IIIB) (WT); range stated for Compounds I-V together, read-out: 50% inhibitory concentration, HIV-1(IIIB) replication in CEM cells): 0.004 to 0.05 µg/mL (≈ 0.0105 to 0.132 µM) | EC50 (HIV-1/I(0.1) 103-Asn): 1.75 µg/mL (≈ 4.61 µM) | EC50 (HIV-1/II(0.1) 100-Ile): ≥ 5 µg/mL | EC50 (HIV-1/III(0.1) 103-Asn): 0.35 µg/mL (≈ 0.921 µM) | EC50 (HIV-1/Nev (106-Ala)): 0.073 µg/mL (≈ 0.192 µM) | EC50 (HIV-1/Pyr (181-Cys)): 0.077 µg/mL (≈ 0.203 µM) | EC50 [1]: 0.85 µg/mL (≈ 2.24 µM) | EC50 [2]: > 1 µg/mL | EC50 [3]: 0.075 µg/mL (≈ 0.197 µM) | EC50 [4]: 0.3 µg/mL (≈ 0.79 µM) | EC50 (HIV-1/V(0.5) 103-Asn): ≥ 5 µg/mL | IC50 (HIV-1 RT (WT); range stated for the compounds together, poly(C).oligo(dG), 2.95 μM [2,8-3H]dGTP, read-out: IC50 on recombinant HIV-1 RT): 47.4 to 203 nM | IC50 (HIV-1 RT (WT); substrate [2,8-3H]dGTP 2.95 μM, template poly(rC)oligo(dG), read-out: IC50, anti-HIV-1 RT (WT) activity (converted)): 203 nM | prevention of virus breakthrough, fold more efficient than BHAP (HIV-1(IIIB)): at least 5 fold | prevention of virus breakthrough, fold more efficient than nevirapine (HIV-1(IIIB)): ≥ 25 fold | activity at 0.1 µg/mL (HIV-1(IIIB); 96 h, day 4 post infection): 0% | activity at 0.5 µg/mL (HIV-1(IIIB); 96 h, day 4 post infection): 0% | activity at 2.5 µg/mL (HIV-1(IIIB); 96 h, day 4 post infection): 0% | activity at 0.1 µg/mL (HIV-1(IIIB); 192 h, day 8 post infection): 37.5% | activity at 0.5 µg/mL (HIV-1(IIIB); 192 h, day 8 post infection): 0% | activity at 2.5 µg/mL (HIV-1(IIIB); 192 h, day 8 post infection): 0% | activity at 0.1 µg/mL (HIV-1(IIIB); 264 h, day 11 post infection): 50% | activity at 0.5 µg/mL (HIV-1(IIIB); 264 h, day 11 post infection): 0% | activity at 2.5 µg/mL (HIV-1(IIIB); 264 h, day 11 post infection): 0% | activity at 0.1 µg/mL (HIV-1(IIIB); 336 h, day 14 post infection): 100% | activity at 0.5 µg/mL (HIV-1(IIIB); 336 h, day 14 post infection): 18.5% | activity at 2.5 µg/mL (HIV-1(IIIB); 336 h, day 14 post infection): 0% | activity at 0.1 µg/mL (HIV-1(IIIB); 408 h, day 17 post infection): 100% | activity at 0.5 µg/mL (HIV-1(IIIB); 408 h, day 17 post infection): 75% | activity at 2.5 µg/mL (HIV-1(IIIB); 408 h, day 17 post infection): 0% | activity at 0.1 µg/mL (HIV-1(IIIB); 504 h, day 21 post infection): 100% | activity at 0.5 µg/mL (HIV-1(IIIB); 504 h, day 21 post infection): 100% | activity at 2.5 µg/mL (HIV-1(IIIB); 504 h, day 21 post infection): 0% | activity at 0.1 µg/mL (HIV-1(IIIB); 600 h, day 25 post infection): 100% | activity at 0.5 µg/mL (HIV-1(IIIB); 600 h, day 25 post infection): 100% | activity at 2.5 µg/mL (HIV-1(IIIB); 600 h, day 25 post infection): 0% | activity at 0.1 µg/mL (HIV-1(IIIB); 672 h, day 28 post infection): 100% | activity at 0.5 µg/mL (HIV-1(IIIB); 672 h, day 28 post infection): 100% | activity at 2.5 µg/mL (HIV-1(IIIB); 672 h, day 28 post infection): 0% | activity at 0.1 µg/mL (HIV-1(IIIB); 768 h, day 32 post infection): 100% | activity at 0.5 µg/mL (HIV-1(IIIB); 768 h, day 32 post infection): 100% | activity at 2.5 µg/mL (HIV-1(IIIB); 768 h, day 32 post infection): 0% | activity at 0.1 µg/mL (HIV-1(IIIB); 840 h, day 35 post infection): 100% | activity at 0.5 µg/mL (HIV-1(IIIB); 840 h, day 35 post infection): 100% | activity at 2.5 µg/mL (HIV-1(IIIB); 840 h, day 35 post infection): 0% | activity at 0.1 µg/mL (HIV-1(IIIB); [5]): 100% | activity at 0.5 µg/mL (HIV-1(IIIB); [5]): 100% | activity at 2.5 µg/mL (HIV-1(IIIB); [5]): 0% | activity at 0.1 µg/mL (HIV-1(IIIB); [6]): 100% | activity at 0.5 µg/mL (HIV-1(IIIB); [6]): 100% | activity at 2.5 µg/mL (HIV-1(IIIB); [6]): 0% | activity at 0.1 µg/mL (HIV-1(IIIB); [7]): 100% | activity at 0.5 µg/mL (HIV-1(IIIB); [7]): 100% | activity at 2.5 µg/mL (HIV-1(IIIB); [7]): 0% | activity at 0.1 µg/mL (HIV-1(IIIB); [8]): 100% | activity at 0.5 µg/mL (HIV-1(IIIB); [8]): 100% | activity at 2.5 µg/mL (HIV-1(IIIB); [8]): 0% | activity at 0.1 µg/mL (HIV-1(IIIB); [9]): 100% | activity at 0.5 µg/mL (HIV-1(IIIB); [9]): 100% | activity at 2.5 µg/mL (HIV-1(IIIB); [9]): 0% | concentration at which virus emerged (virus breakthrough) (HIV-1(IIIB); tested at 0.1, 0.5 and 2.5 μg/ml, 35 days): 0.5 µg/mL
